Like-named read-outs stand apart in the source and are kept apart here.
How the values were obtained:
Caco-2 cells [1] = assay: PGE2 assay in Caco-2 cells; format: cell-based, human
Protocol: Caco-2 cells were plated in 6 well plates at a density of 2×10^5 cells/well. After 24 hours, the medium was replaced with fresh medium containing 0.1% serum with or without, sorbinil (20 μM) followed by treatment with either 10 ng/ml BFGF or PDGF, for another 24 h. HT29 cells were plated in 6 well plate at a density of 2×10^5 cells/well. After 24 hours, medium was replaced with serum-free medium with or without, sorbinil or zopolrestat (20 μM) followed by treatment with either EGF (5 ng/ml) or BFGF (10 ng/ml) for another 24 h. The medium from each cell lines was collected from each well and analyzed for PGE2 by using an Enzyme Immuno Assay kit according to the manufacturer's instructions (Cayman Chemical Co., Inc.).
Briefly, 50 μl of diluted standard/sample were pipetted into a pre-coated goat polyclonal anti-mouse IgG 96-well plate. Aliquots (50 μl) of a PGE2 monoclonal antibody and PGE2 acetylcholine esterase (AchE) conjugate, (PGE2 tracer) were added to each well and allowed to incubate at 4° C. for 24 h. After incubation, the wells were washed five times with wash buffer containing 0.05% Tween-20, followed by the addition of 200 μl of Ellman's reagent containing acetylthiocholine and 5,5′-dithio-bis-(2-nitrobenzoic acid). Samples were read after 60 min at 412 nm with an ELISA reader. In this procedure the intensity of yellow color, is proportional to the amount of PGE2 tracer bound to the well and is inversely proportional to the amount of free PGE2 present in the well during incubation.

C57BL/6 mice = assay: LPS-induced cytokines in serum and heart of mice; format: in vivo, mouse
Protocol: At the indicated times, TNF-a, IL-6, IL-12, interferon (IFN)-g, IL-1b, and monocyte chemo attractant protein (MCP)-1 levels in serum and in heart homogenates were determined (FIGS. 6A-6D). Prostaglandin E2 (PGE-2), cyclo-oxygenase 2 (COX-2), and nitrate levels were measured separately (FIG. 6E). Solid symbols, values from the mice injected with LPS; open symbols, values from the mice treated with LPS and sorbinil.
In sorbinil-treated mice, however, serum cytokine levels increased only 2-fold, began declining within 4 h, and returned to baseline levels within 12 h.

A549 cells = assay: Western blot of Cox-2 and iNOS in A549 cells; format: cell-based, human; conditions: concentration dependent
Protocol: To examine expression of any of Cox-1, Cox-2, phospho-PKC-2, GAPDH, E2F1, Cyclin D1, Cyclin E, and iNOS proteins, Western blot analyses were carried by known methods (15). Equal amounts of protein from cell extracts were subjected to 12% SDS-PAGE followed by transfer of proteins to nitrocellulose filters, probing with the indicated antibodies, and the antigen-antibody complex was detected by enhanced chemiluminescence (Pierce, Piscataway, N.J., USA).

Caco-2 cells [2] = assay: Reactive oxygen species in Caco-2 cells (DCFH-DA); format: cell-based, human; conditions: 20 μM, FGF or PDGF 10 ng/ml 60 min
Protocol: Caco-2 cells were plated in a 24-well plate at a density of 1.5×10^4 cells/well in DMEM and then serum-starved at 60-70% confluence in the absence and presence of 20 μM sorbinil or tolrestat for overnight in phenol red-free DMEM supplemented with 0.1% FBS. Cells were then pre-incubated for 30 min with the ROS-sensitive fluorophore 2′,7′-dichlorofluorescein diacetate (DCFH-DA), which is taken up and oxidized to the fluorescent dichlorofluorescein by intracellular ROS. After incubation with DCFH-DA, the cells were exposed to FGF or PDGF 10 ng/ml for 60 min and fluorescence was measured with a CytoFluorII fluorescence plate reader (PerSeptive Biosystems, Inc., Framingham, Mass.) at excitation of 485 nm and emission of 528 nm.

Caco-2 cells [3] = assay: Membrane-bound PKC activity in Caco-2 cells; format: cell-based, human
Protocol: PKC activity was measured using the Promega-Sigma TECT PKC assay system as described earlier (15). Briefly, aliquots of the reaction mixture (25 mM Tris-Hcl pH 7.5, 1.6 mg/mL phosphatidylserine, 0.16 mg/mL diacylglycerol, and 50 mM MgCl2) were mixed with […] (3,000 Ci/mmol, 10 μCi/μL) and incubated at 30° C. for 10 min. To stop the reaction, 7.5 M guanidine hydrochloride were added and the phosphorylated peptide was separated on binding paper. The extent of phosphorylation was detected by measuring radioactivity retained on the paper.

Caco-2 cells [4] = assay: Flowcytometric cell cycle analysis, Caco-2; format: cell-based, human; conditions: sorbinil 20 μM
Protocol: The Caco-2 and A549 cells were grown separately in 6 well plates at a density of approximately 1.5×10^5 cells/well. Growth-arrested Caco-2 cells were pre-incubated with or without sorbinil 20 μM or carrier for 24 h and then stimulated with either 10 ng/ml BFGF or PDGF for another 24 h. After 24 hrs A549 cells were incubated with or without sorbinil at different concentrations for another 24 h.
The Caco-2 and A549 cells were then washed with PBS and harvested by trypsinization. Cellular DNA was stained with low and high salt solutions. Briefly, cells were resuspended in 250 μl of solution A, low salt stain, containing polyetheleneglycol (30 mg/ml), propidium iodide (0.05 mg/ml), triton-x-100 (1 μl/ml), sodium citrate 4 mM, RNAse A 10 μg/ml and incubated at 37° C. for 20 min followed by the addition of 250 μl of solution B, high salt stain containing 400 mM NaCl instead of 4 mM sodium citrate in solution A, and incubated overnight at 4° C. Cell cycle analysis was performed with a minimum of 10,000 events per analysis by using FACScan flow cytometer (Becton, Dickinson and Co., San Jose, Calif., USA).

mice = conditions: for survival: sorbinil pre-treatment
Protocol: Therefore increasing doses of LPS was administered to determine the dose at which fifty percent lethality occurred (LD50) in the presence or absence of aldose reductase inhibitor (ARI) in order to determine if ARI protected mice for LPS-induced death (FIG. 7D).

[5] = sorbinil pretreatment, LPS 4 mg/kg

(S)-6-fluorospiro[chroman-4,4′-imidazolidine]-2,5′-dione [sorbinil]
prevention of PGE2 production induced by BFGF and PDGF (Caco-2 cells [1]; sorbinil 20 μM, 10 ng/ml BFGF or PDGF, 24 h): > 90%
GS-DHN-induced PGE2 production (Caco-2 cells [1]; sorbinil 24 h, GS-DHN-ester 24 h): had no effect
HNE and GS-HNE-induced PGE2 production (Caco-2 cells [1]; sorbinil 24 h, aldehydes 24 h): significantly prevented
constitutive levels of PGE2 (Caco-2 cells [1]; sorbinil alone): did not inhibit
maladaptive systemic inflammatory response in serum (C57BL/6 mice; sorbinil 2 h after LPS exposure): blunted
time at which serum cytokine levels began declining (C57BL/6 mice; [5]): ≤ 4 h
time at which serum cytokine levels returned to baseline (C57BL/6 mice; [5]): ≤ 12 h
increase of serum cytokine levels after LPS (C57BL/6 mice; sorbinil pretreatment, LPS 4 mg/kg peritoneally): 2 fold
Cox-2 and iNOS expression (A549 cells): inhibit
growth factor-induced increase in ROS (Caco-2 cells [2]): inhibited
growth factor-induced increase in membrane-bound PKC activity (Caco-2 cells [3]): significantly prevented
total PKC activity (Caco-2 cells [3]; sorbinil by itself): did not alter
percentage of cells in G1 (Caco-2 cells [4]; Control): 54.97%
percentage of cells in G2 (Caco-2 cells [4]; Control): 5.32%
percentage of cells in S (Caco-2 cells [4]; Control): 39.71%
percentage of cells in G1 (Caco-2 cells [4]; FGF): 36.31%
percentage of cells in G2 (Caco-2 cells [4]; FGF): 1.54%
percentage of cells in S (Caco-2 cells [4]; FGF): 52.15%
percentage of cells in G1 (Caco-2 cells [4]; PDGF): 36.18%
percentage of cells in G2 (Caco-2 cells [4]; PDGF): 12.10%
percentage of cells in S (Caco-2 cells [4]; PDGF): 51.71%
LD50 for LPS with sorbinil post-treatment (mice; sorbinil 2 h after LPS, 48 h survival): 20 mg/kg
LD50 for LPS with sorbinil pre-treatment (mice; sorbinil 24 h before LPS, 48 h survival): 24 mg/kg
survival (mice; LPS 14 mg/kg): approximately 90%
survival (mice; LPS 24 mg/kg): over 60%
